Experimental data reported in patent US4021564A, “Neuroleptic piperidine compounds” (AB Ferrosan, priority 1975, dated 1977).

Columns and labels:
Acute Toxicity in Mice = settings: mouse, in vivo
mice = test: Inhibition of Exploratory Behavior (Climbing) in mice; type: in vivo; settings: Mus musculus, sc, 1 hr.
Text: (a) Inhibition of climbing in mice (inhibition of exploratory behavior). These tests have been described, and the importance of coordinating the compounds with these tests and the activities shown thereby is described in detail in the following literature: (a) Inhibition of Exploratory Behavior (Climbing) van Rossum, J.M., et al., in The Neuroleptics, Modern Problems of Pharmaco-[…], Vol. 5, […]., in Arch. Int. Pharmacodyn 126, 238 (1960). Sandberg, S., in Arzneimittelforschung 9, 203 (1958).

rats = test: Inhibition of Conditioned Avoidance Response in rats; type: in vivo; settings: Rattus norvegicus, sc, 1.5 hrs.
Text: (b) Inhibition of conditioned behavior in rats. These tests have been described, and the importance of coordinating the compounds with these tests and the activities shown thereby is described in detail in the following literature: (b) Inhibition of Conditioned Avoidance Response "Neuroleptics characteristically interrupt the response to the warning stimulus (avoidance) without at the same time interrupting the response to the noxious stimulus (escape) which follows it." An introduction to Psycho-Pharmacology, Eds. Rech and Moore, New York, p. 264 (1971); Courvoisier, S., et al., in Arch. Int. Pharmacodyn. 92, 305 (1953); Jacobsen, E., in Psychotrophic Drugs, […], Amsterdam, p. 119 (1957). Jacobsen and Sonne, in Acta Pharmacol. et Toxicol. 11, pp. 135-147 (1955).

Compound: Cc1ccc(C(=O)C2(O)CCN(CCCC(=O)c3ccc(F)cc3)CC2)cc1 [CH3, 1-[3-(p-fluorobenzoyl)propyl]-4-(p-methylbenzoyl)-4-hydroxypiperidine]
- LD50 at 48 h (Acute Toxicity in Mice; po): > 1000 mg/kg
- LD50 at 48 h (Acute Toxicity in Mice; sc): > 1000 mg/kg
- ED50 (mice): 0.8 mg/kg
- ED50 (rats): 0.32 mg/kg

Compound: O=C(CCCN1CCC(O)(C(=O)c2ccc(Cl)cc2)CC1)c1ccc(F)cc1 [Cl, 1-[3-(p-fluorobenzoyl)propyl]-4-(p-chlorobenzoyl)-4-hydroxypiperidine]
- LD50 at 48 h (Acute Toxicity in Mice; po): 630 mg/kg
- LD50 at 48 h (Acute Toxicity in Mice; sc): > 1000 mg/kg
- ED50 (mice): 0.95 mg/kg
- ED50 (rats): 0.37 mg/kg

Compound: Cl.O=C(CCCN1CCC(O)(C(=O)c2ccc(F)cc2)CC1)c1ccc(F)cc1 [F, 1-[3-(p-fluorobenzoyl)propyl]-4-(p-fluorobenzoyl)-4-hydroxypiperidine hydrochloride]
- LD50 at 48 h (Acute Toxicity in Mice; po): 500 mg/kg
- LD50 at 48 h (Acute Toxicity in Mice; sc): > 1000 mg/kg
- ED50 (mice): 0.19 mg/kg
- ED50 (rats): 0.13 mg/kg

Compound: COc1ccc(C(=O)C2(O)CCN(CCCC(=O)c3ccc(F)cc3)CC2)cc1 [OCH3, 1-[3-(p-fluorobenzoyl)propyl]-4-(p-methoxybenzoyl)-4-hydroxypiperidine]
- LD50 at 48 h (Acute Toxicity in Mice; po): 890 mg/kg
- LD50 at 48 h (Acute Toxicity in Mice; sc): > 1000 mg/kg
- ED50 (mice): 1 mg/kg
- ED50 (rats): 0.24 mg/kg
